# Target: T1, Cathepsin G (Homo sapiens, UniProt P08311);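 note: inhibition of Cathepsin G enzyme activity, tested on an AMC-conjugated peptide substrate; in other assays of this panel Not Active means under 50% inhibition at 10 µM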
# T1 sequence (P08311 whole entry): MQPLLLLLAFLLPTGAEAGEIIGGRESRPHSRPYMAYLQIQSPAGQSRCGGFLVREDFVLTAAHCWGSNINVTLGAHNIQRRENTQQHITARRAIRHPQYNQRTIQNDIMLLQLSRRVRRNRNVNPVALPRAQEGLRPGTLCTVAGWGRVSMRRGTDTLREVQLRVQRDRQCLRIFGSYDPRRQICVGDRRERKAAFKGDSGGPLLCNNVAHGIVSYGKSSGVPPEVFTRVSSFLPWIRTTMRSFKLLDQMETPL
# Assay type: tissue-based
# Conditions: neutrophil
row,Structure (SMILES),IC50
1,N[C@@H](Cc1ccc(F)cc1)C(=O)O,Not Active
2,C[C@@H]1CC[C@H]2[C@@H](C)C(=O)O[C@@H]3O[C@@]4(C)CC[C@@H]1[C@]32OO4 [ARTEMISININ],Not Active
3,CC(C)(C)c1ccc(S(=O)(=O)/C=C/C#N)cc1 [BAY-11-7085],Not Active
4,CCC[C@@H]1C[C@@H](C(=O)N[C@@H]([C@H]2O[C@H](SC)[C@H](O)[C@@H](O)[C@H]2O)[C@H](C)Cl)N(C)C1 [CLINDAMYCIN],Not Active
5,C#C[C@]1(O)CC[C@H]2[C@@H]3CCC4=Cc5oncc5C[C@]4(C)[C@H]3CC[C@@]21C [DANAZOL],Not Active
6,CN1C(=O)CN=C(c2ccccc2)c2cc(Cl)ccc21 [DIAZEPAM],Not Active
7,Cc1c(N(C)CS(=O)(=O)[O-])c(=O)n(-c2ccccc2)n1C.[Na+] [DIPYRONE SODIUM],Not Active
8,CCOC(=O)C1=C(C)NC(C)=C(C(=O)OC)C1c1cccc(Cl)c1Cl (centres undefined) [FELODIPINE],Not Active
9,Cc1cn[nH]c1 [FOMEPIZOLE],Not Active
10,Cc1cnc(C(=O)NCCc2ccc(S(=O)(=O)NC(=O)NC3CCCCC3)cc2)cn1 [GLIPIZIDE],Not Active
11,COc1ccccc1OCC(O)CO (centres undefined) [GUAIFENESIN],Not Active
12,C/C=C\c1ccc(O)c(OC)c1 [ISOEUGENOL],Not Active

# Target: Mitogen-activated protein kinase 1 (Homo sapiens, UniProt P28482)
# Sequence (P28482 whole entry): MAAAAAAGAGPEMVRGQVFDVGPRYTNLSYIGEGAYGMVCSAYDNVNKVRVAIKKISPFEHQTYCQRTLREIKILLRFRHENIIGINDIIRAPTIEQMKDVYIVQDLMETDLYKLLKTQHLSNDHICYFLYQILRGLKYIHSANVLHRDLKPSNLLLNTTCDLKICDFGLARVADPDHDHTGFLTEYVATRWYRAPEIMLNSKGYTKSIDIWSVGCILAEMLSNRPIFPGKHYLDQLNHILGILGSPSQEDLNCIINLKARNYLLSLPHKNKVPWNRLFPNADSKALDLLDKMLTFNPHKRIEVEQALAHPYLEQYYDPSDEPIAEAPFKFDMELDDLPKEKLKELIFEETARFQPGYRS
# Assay: DRUGMATRIX: Protein Serine/Threonine Kinase, ERK2 enzyme inhibition (substrate: Myelin Basic Protein)
# Set-up: species or system Escherichia coli
# Conditions: Not Active = under 50% inhibition at 10 µM
row,Structure (SMILES),IC50
1,N[C@@H](Cc1ccc(F)cc1)C(=O)O,Not Active
2,C[C@@H]1CC[C@H]2[C@@H](C)C(=O)O[C@@H]3O[C@@]4(C)CC[C@@H]1[C@]32OO4 [ARTEMISININ],Not Active
3,CC(C)(C)c1ccc(S(=O)(=O)/C=C/C#N)cc1 [BAY-11-7085],Not Active
4,CCC[C@@H]1C[C@@H](C(=O)N[C@@H]([C@H]2O[C@H](SC)[C@H](O)[C@@H](O)[C@H]2O)[C@H](C)Cl)N(C)C1 [CLINDAMYCIN],Not Active
5,C#C[C@]1(O)CC[C@H]2[C@@H]3CCC4=Cc5oncc5C[C@]4(C)[C@H]3CC[C@@]21C [DANAZOL],Not Active
6,CN1C(=O)CN=C(c2ccccc2)c2cc(Cl)ccc21 [DIAZEPAM],Not Active
7,CCOC(=O)C1=C(C)NC(C)=C(C(=O)OC)C1c1cccc(Cl)c1Cl (centres undefined) [FELODIPINE],Not Active
8,Cc1cn[nH]c1 [FOMEPIZOLE],Not Active
9,COc1ccccc1OCC(O)CO (centres undefined) [GUAIFENESIN],Not Active
10,C/C=C\c1ccc(O)c(OC)c1 [ISOEUGENOL],Not Active

# Target: cGMP-specific 3',5'-cyclic phosphodiesterase (Homo sapiens, UniProt O76074)
# Assay: DRUGMATRIX: Phosphodiesterase PDE5 enzyme inhibition (substrate: [3H]cGMP + cGMP)
# Assay type: tissue-based
# Conditions: platelet; Not Active = under 50% inhibition at 10 µM
row,Structure (SMILES),IC50
1,N[C@@H](Cc1ccc(F)cc1)C(=O)O,Not Active
2,C[C@@H]1CC[C@H]2[C@@H](C)C(=O)O[C@@H]3O[C@@]4(C)CC[C@@H]1[C@]32OO4 [ARTEMISININ],Not Active
3,CC(C)(C)c1ccc(S(=O)(=O)/C=C/C#N)cc1 [BAY-11-7085],Not Active
4,CCC[C@@H]1C[C@@H](C(=O)N[C@@H]([C@H]2O[C@H](SC)[C@H](O)[C@@H](O)[C@H]2O)[C@H](C)Cl)N(C)C1 [CLINDAMYCIN],Not Active
5,C#C[C@]1(O)CC[C@H]2[C@@H]3CCC4=Cc5oncc5C[C@]4(C)[C@H]3CC[C@@]21C [DANAZOL],Not Active
6,CN1C(=O)CN=C(c2ccccc2)c2cc(Cl)ccc21 [DIAZEPAM],Not Active
7,Cc1c(N(C)CS(=O)(=O)[O-])c(=O)n(-c2ccccc2)n1C.[Na+] [DIPYRONE SODIUM],Not Active
8,CCOC(=O)C1=C(C)NC(C)=C(C(=O)OC)C1c1cccc(Cl)c1Cl (centres undefined) [FELODIPINE],Not Active
9,Cc1cn[nH]c1 [FOMEPIZOLE],Not Active
10,Cc1cnc(C(=O)NCCc2ccc(S(=O)(=O)NC(=O)NC3CCCCC3)cc2)cn1 [GLIPIZIDE],Not Active
11,COc1ccccc1OCC(O)CO (centres undefined) [GUAIFENESIN],Not Active
12,C/C=C\c1ccc(O)c(OC)c1 [ISOEUGENOL],Not Active

# Target: Cytochrome P450 2D6 (Homo sapiens, UniProt P10635); note: in other assays of this panel Not Active means under 50% inhibition at 10 µM
# Sequence (P10635 whole entry): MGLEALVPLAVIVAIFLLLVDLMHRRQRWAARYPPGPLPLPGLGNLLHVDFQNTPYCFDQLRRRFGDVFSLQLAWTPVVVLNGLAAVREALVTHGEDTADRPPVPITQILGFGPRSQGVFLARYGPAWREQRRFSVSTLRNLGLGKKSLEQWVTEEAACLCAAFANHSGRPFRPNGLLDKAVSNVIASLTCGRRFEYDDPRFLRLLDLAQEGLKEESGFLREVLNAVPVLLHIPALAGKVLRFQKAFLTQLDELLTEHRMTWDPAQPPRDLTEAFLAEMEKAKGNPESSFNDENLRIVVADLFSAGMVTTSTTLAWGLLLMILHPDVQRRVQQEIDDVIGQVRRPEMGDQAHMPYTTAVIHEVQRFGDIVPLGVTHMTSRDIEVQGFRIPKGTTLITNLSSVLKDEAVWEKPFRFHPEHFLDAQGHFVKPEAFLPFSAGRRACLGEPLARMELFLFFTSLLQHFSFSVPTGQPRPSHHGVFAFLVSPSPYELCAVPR
# Conditions: bti-tn-5b1-4
Structure (SMILES),IC50,Ki
CC(C)(C)c1ccc(S(=O)(=O)/C=C/C#N)cc1 [BAY-11-7085],Not Active,Not Active
C#C[C@]1(O)CC[C@H]2[C@@H]3CCC4=Cc5oncc5C[C@]4(C)[C@H]3CC[C@@]21C [DANAZOL],Not Active,Not Active
Cc1c(N(C)CS(=O)(=O)[O-])c(=O)n(-c2ccccc2)n1C.[Na+] [DIPYRONE SODIUM],Not Active,Not Active

# Target: T2, Muscarinic acetylcholine receptor M2 (Homo sapiens, UniProt P08172); note: in other assays of this panel Not Active means under 50% inhibition at 10 µM
# T2 sequence (P08172 whole entry): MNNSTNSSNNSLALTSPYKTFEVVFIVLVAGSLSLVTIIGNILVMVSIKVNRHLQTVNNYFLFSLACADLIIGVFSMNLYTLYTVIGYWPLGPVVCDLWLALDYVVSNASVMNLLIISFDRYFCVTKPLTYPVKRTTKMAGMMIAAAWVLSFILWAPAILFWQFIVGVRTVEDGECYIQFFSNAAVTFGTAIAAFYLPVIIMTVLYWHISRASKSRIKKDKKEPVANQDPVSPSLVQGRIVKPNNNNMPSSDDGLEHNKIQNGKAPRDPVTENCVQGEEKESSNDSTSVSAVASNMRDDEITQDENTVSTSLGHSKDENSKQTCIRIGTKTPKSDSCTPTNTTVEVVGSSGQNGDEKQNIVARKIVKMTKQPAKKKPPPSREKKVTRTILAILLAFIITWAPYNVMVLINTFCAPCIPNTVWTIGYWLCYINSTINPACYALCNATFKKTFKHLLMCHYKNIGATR
# Assay type: cell membranes, CHO-K1, Membrane
# Conditions: cho-k1
row,Structure (SMILES),IC50
1,N[C@@H](Cc1ccc(F)cc1)C(=O)O,Not Active
2,C[C@@H]1CC[C@H]2[C@@H](C)C(=O)O[C@@H]3O[C@@]4(C)CC[C@@H]1[C@]32OO4 [ARTEMISININ],Not Active
3,CC(C)(C)c1ccc(S(=O)(=O)/C=C/C#N)cc1 [BAY-11-7085],Not Active
4,CCC[C@@H]1C[C@@H](C(=O)N[C@@H]([C@H]2O[C@H](SC)[C@H](O)[C@@H](O)[C@H]2O)[C@H](C)Cl)N(C)C1 [CLINDAMYCIN],Not Active
5,C#C[C@]1(O)CC[C@H]2[C@@H]3CCC4=Cc5oncc5C[C@]4(C)[C@H]3CC[C@@]21C [DANAZOL],Not Active
6,CN1C(=O)CN=C(c2ccccc2)c2cc(Cl)ccc21 [DIAZEPAM],Not Active
7,Cc1c(N(C)CS(=O)(=O)[O-])c(=O)n(-c2ccccc2)n1C.[Na+] [DIPYRONE SODIUM],Not Active
8,CCOC(=O)C1=C(C)NC(C)=C(C(=O)OC)C1c1cccc(Cl)c1Cl (centres undefined) [FELODIPINE],Not Active
9,Cc1cn[nH]c1 [FOMEPIZOLE],Not Active
10,Cc1cnc(C(=O)NCCc2ccc(S(=O)(=O)NC(=O)NC3CCCCC3)cc2)cn1 [GLIPIZIDE],Not Active
11,COc1ccccc1OCC(O)CO (centres undefined) [GUAIFENESIN],Not Active
12,C/C=C\c1ccc(O)c(OC)c1 [ISOEUGENOL],Not Active

# Target: D(1A) dopamine receptor (Homo sapiens, UniProt P21728)
# Sequence (P21728 whole entry): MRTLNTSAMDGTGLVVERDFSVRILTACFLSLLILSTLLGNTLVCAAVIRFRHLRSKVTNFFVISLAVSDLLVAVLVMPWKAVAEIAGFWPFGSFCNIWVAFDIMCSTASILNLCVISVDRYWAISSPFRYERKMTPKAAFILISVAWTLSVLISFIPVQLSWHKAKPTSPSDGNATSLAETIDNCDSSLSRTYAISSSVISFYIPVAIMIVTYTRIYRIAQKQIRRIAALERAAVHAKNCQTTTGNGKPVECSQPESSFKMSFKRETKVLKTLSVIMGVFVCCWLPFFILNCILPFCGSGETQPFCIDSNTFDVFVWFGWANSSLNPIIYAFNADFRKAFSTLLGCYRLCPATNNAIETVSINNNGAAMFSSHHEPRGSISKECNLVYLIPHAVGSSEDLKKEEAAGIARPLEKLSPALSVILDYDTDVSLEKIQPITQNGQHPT
# Assay: DRUGMATRIX: Dopamine D1 radioligand binding (ligand: [3H] SCH-23390)
# Assay type: cell membranes, CHO, Membrane
# Conditions: cho; Not Active = under 50% inhibition at 10 µM
row,Structure (SMILES),IC50
1,N[C@@H](Cc1ccc(F)cc1)C(=O)O,Not Active
2,C[C@@H]1CC[C@H]2[C@@H](C)C(=O)O[C@@H]3O[C@@]4(C)CC[C@@H]1[C@]32OO4 [ARTEMISININ],Not Active
3,CCC[C@@H]1C[C@@H](C(=O)N[C@@H]([C@H]2O[C@H](SC)[C@H](O)[C@@H](O)[C@H]2O)[C@H](C)Cl)N(C)C1 [CLINDAMYCIN],Not Active
4,CN1C(=O)CN=C(c2ccccc2)c2cc(Cl)ccc21 [DIAZEPAM],Not Active
5,Cc1c(N(C)CS(=O)(=O)[O-])c(=O)n(-c2ccccc2)n1C.[Na+] [DIPYRONE SODIUM],Not Active
6,CCOC(=O)C1=C(C)NC(C)=C(C(=O)OC)C1c1cccc(Cl)c1Cl (centres undefined) [FELODIPINE],Not Active
7,Cc1cn[nH]c1 [FOMEPIZOLE],Not Active
8,Cc1cnc(C(=O)NCCc2ccc(S(=O)(=O)NC(=O)NC3CCCCC3)cc2)cn1 [GLIPIZIDE],Not Active
9,COc1ccccc1OCC(O)CO (centres undefined) [GUAIFENESIN],Not Active
10,C/C=C\c1ccc(O)c(OC)c1 [ISOEUGENOL],Not Active

# Target: Melanocortin receptor 4 (Homo sapiens, UniProt P32245); note: in other assays of this panel Not Active means under 50% inhibition at 10 µM
# Sequence (P32245 whole entry): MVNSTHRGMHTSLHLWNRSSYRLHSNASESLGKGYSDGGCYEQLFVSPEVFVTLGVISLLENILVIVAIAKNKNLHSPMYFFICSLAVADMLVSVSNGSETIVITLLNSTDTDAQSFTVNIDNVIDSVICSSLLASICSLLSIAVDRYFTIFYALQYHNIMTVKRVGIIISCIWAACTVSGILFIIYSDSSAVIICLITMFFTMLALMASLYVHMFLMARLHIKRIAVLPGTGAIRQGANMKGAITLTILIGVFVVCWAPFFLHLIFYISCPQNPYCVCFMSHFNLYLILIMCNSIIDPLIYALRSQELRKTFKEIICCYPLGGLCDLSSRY
# Assay type: cell membranes, Membrane
# Conditions: hek293
row,Structure (SMILES),IC50
1,N[C@@H](Cc1ccc(F)cc1)C(=O)O,Not Active
2,C[C@@H]1CC[C@H]2[C@@H](C)C(=O)O[C@@H]3O[C@@]4(C)CC[C@@H]1[C@]32OO4 [ARTEMISININ],Not Active
3,CC(C)(C)c1ccc(S(=O)(=O)/C=C/C#N)cc1 [BAY-11-7085],Not Active
4,CCC[C@@H]1C[C@@H](C(=O)N[C@@H]([C@H]2O[C@H](SC)[C@H](O)[C@@H](O)[C@H]2O)[C@H](C)Cl)N(C)C1 [CLINDAMYCIN],Not Active
5,C#C[C@]1(O)CC[C@H]2[C@@H]3CCC4=Cc5oncc5C[C@]4(C)[C@H]3CC[C@@]21C [DANAZOL],Not Active
6,CN1C(=O)CN=C(c2ccccc2)c2cc(Cl)ccc21 [DIAZEPAM],Not Active
7,Cc1c(N(C)CS(=O)(=O)[O-])c(=O)n(-c2ccccc2)n1C.[Na+] [DIPYRONE SODIUM],Not Active
8,CCOC(=O)C1=C(C)NC(C)=C(C(=O)OC)C1c1cccc(Cl)c1Cl (centres undefined) [FELODIPINE],Not Active
9,Cc1cn[nH]c1 [FOMEPIZOLE],Not Active
10,Cc1cnc(C(=O)NCCc2ccc(S(=O)(=O)NC(=O)NC3CCCCC3)cc2)cn1 [GLIPIZIDE],Not Active
11,COc1ccccc1OCC(O)CO (centres undefined) [GUAIFENESIN],Not Active
12,C/C=C\c1ccc(O)c(OC)c1 [ISOEUGENOL],Not Active
